# Experiments:
# [1] = target: T1, CTLD(4-7)-Fc (construct of the mannose receptor) (Mus musculus, UniProt Q61830); assay: ELISA binding of mannose receptor construct CTLD(4-7)-Fc to coated ligands; settings: ELISA plates coated with ligand; FIG. 3c
# T1 construct: gift of Dr Luisa Martinez-Pomares, University of Nottingham
# Description: Constructs of the mannose receptor, CTLD(4-7)-FC and CR-FNII-CTLD(1-3)-CR-Fc, were kindly donated by Dr Luisa Martinez-Pomares, School of Molecular Medical Sciences, Queen's Medical Centre, University of Nottingham, UK. The binding of the constructs to whole recombinant human FVIII and to B domain-deleted recombinant human FVIII was tested either directly by measuring the binding to ELISA plates coated with ligands (mannan was used as a positive control) or indirectly by inhibition tests. The ELISA plates (Nunc; MAXISORP) were coated overnight with dilution series of the FVIII forms (starting at 50 μg/ml) in 154 mM NaCl. TTBS buffer (Tris-HCl 10 mM, pH 7.5, Ca^2+ 10 mM, NaCl 154 mM and 0.05% Tween-20) was used for all the washings. The non-reactive sites were blocked by TBS buffer (TTBS without Tween-20) containing 3% BSA. The plates were then incubated with 2 or 10 μg/ml of the constructs for 2 h at room temperature in TTBS buffer containing 3% BSA. The binding of the MR constructs was detected using a mouse antibody specific for the Fc part of human IgG conjugated to HRP (clone JDC-10, Southern Biotechnology Associates, Inc. AL, USA). […] The absorbance was measured at 492 nm. For the inhibition tests, the plates were coated with each form of FVIII (5.56 μg/ml). […] The absorbance was measured as described above. […]
# [2] = test system: autologous CD4+ T cells; assay: In vitro proliferation of autologous CD4+ T cells (tritiated thymidine); type: cell-based, human; settings: DCs incubated with mannan (1 mg/ml) before FVIII; FIG. 4a
# Description: The DCs of Example 1 were incubated with mannan (1 mg/ml) for 30 min at 37° C. FVIII dialyzed against RPMI 1640 medium (Kogenate, Bayer) was added (40 μg/ml, 0.143 μM) for 2 hours. The cells were then washed and incubated with LPS (1 μg/0.5 million cells) in complete medium for 48 hours. The cells were then washed and cultured (RPMI 1640 medium, supplemented with 10% male human AB serum, in 96-well cell culture plates with a round base with 200 μl per well) with autologous CD4+ T cells obtained from the PBMC of the corresponding donor using the MACS cell isolation kit (Miltenyi Biotech, Bergisch Gladbach, Germany). The number of CD4+ T cells was kept constant in each well (100,000 cells/well), while the number of DCs varied (5,000, 10,000 and 15,000 DCs in triplicate), giving a T:DC cell ratio of 20:1, 10:1, 6.6:1.
# After culture for 4 days, 0.5 μCi of tritiated thymidine was added to each well. The cells were harvested after 16 hours and the radioactivity incorporated was counted.
# [3] = test system: D9E9 (T cell clone specific for FVIII); assay: In vitro activation of FVIII-specific T cell clone D9E9 (IFN-gamma production); type: cell-based, human
# Description: After washing, the DCs of Example 1 were resuspended in DMEM:F12 (1:1) medium containing 10% FCS and 10,000 DCs were introduced into each well of a 96-well cell culture plate with a round base. After incubation with mannan (1 mg/ml) in each well for 30 min, the DCs were cultured with 5,000 D9E9 (T cell clone specific for FVIII) in DMEM:F12 (1:1) medium containing 10% FCS and 20 U/ml of rhIL-2 with various doses of whole FVIII or FVIII-BDD (10, 8, 6, 4, 2 μg/ml) for 20 hours at 37° C. Like the D9E9 cells, the LE2E9 and BO2C11 lines of B cells transformed by EBV were cultured in the presence of 10 μg/ml of whole FVIII or FVIII-BDD. The control conditions were maintained in the absence of FVIII, D9E9 or DCs. As a negative control, hrFIX (Benefix, Baxter) was incubated with the cells at isomolar concentrations of FVIII. The supernatants were harvested at the end of the incubation period and tested for their production of IFNγ using the human IFN-γ Duo Set (DY285, R&D Systems) in accordance with the manufacturer's instructions.
# [4] = target: FVIII (Homo sapiens, UniProt P00451); assay: One-stage clotting test, residual FVIII activity in normal human plasma; type: biochemical; settings: normal human plasma incubated with mannan 2 hours at 37° C.; FIG. 5a
# Chain of FVIII (P00451 20-1667 limits assumed): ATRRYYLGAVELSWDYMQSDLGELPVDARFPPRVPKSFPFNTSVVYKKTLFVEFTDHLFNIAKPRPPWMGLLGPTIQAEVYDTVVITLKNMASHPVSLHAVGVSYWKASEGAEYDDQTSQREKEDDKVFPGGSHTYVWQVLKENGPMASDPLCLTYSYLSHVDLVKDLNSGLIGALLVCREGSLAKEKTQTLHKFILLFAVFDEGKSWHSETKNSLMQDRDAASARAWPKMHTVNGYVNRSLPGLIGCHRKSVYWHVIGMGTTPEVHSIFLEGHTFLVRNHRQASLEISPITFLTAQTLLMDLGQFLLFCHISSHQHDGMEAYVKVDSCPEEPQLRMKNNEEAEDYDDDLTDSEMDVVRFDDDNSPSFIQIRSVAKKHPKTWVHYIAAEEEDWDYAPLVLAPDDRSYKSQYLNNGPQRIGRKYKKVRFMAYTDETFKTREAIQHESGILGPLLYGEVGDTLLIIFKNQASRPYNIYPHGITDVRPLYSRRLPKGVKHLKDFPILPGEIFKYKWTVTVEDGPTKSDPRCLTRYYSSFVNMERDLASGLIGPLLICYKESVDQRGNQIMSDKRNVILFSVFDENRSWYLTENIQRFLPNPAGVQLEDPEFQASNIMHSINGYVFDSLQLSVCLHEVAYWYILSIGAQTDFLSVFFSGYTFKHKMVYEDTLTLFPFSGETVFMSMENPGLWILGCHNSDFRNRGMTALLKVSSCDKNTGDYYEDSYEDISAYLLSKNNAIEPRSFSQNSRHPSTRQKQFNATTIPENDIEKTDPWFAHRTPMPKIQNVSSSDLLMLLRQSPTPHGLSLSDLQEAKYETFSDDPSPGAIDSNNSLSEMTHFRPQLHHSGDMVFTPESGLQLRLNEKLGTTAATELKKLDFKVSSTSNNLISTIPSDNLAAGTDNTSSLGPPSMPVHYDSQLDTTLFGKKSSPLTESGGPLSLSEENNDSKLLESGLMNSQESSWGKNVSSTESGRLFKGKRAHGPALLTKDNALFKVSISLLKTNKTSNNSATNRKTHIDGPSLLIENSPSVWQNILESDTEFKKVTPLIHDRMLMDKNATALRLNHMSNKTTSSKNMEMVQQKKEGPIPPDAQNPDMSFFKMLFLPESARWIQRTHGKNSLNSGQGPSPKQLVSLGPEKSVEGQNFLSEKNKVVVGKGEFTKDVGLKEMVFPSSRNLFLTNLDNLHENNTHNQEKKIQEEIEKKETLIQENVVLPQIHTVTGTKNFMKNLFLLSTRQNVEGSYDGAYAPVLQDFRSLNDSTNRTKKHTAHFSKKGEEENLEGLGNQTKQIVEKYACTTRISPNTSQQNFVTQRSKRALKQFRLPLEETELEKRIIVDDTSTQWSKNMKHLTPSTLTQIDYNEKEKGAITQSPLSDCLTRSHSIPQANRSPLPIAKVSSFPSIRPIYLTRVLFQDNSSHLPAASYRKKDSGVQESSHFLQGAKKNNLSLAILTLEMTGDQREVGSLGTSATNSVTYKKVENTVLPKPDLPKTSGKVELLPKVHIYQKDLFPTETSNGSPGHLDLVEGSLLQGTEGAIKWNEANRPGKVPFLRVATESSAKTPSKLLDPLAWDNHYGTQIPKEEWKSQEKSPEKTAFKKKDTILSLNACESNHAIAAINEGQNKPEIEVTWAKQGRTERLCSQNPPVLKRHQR
# Chain of FVIII (P00451 1668-2351 limits assumed): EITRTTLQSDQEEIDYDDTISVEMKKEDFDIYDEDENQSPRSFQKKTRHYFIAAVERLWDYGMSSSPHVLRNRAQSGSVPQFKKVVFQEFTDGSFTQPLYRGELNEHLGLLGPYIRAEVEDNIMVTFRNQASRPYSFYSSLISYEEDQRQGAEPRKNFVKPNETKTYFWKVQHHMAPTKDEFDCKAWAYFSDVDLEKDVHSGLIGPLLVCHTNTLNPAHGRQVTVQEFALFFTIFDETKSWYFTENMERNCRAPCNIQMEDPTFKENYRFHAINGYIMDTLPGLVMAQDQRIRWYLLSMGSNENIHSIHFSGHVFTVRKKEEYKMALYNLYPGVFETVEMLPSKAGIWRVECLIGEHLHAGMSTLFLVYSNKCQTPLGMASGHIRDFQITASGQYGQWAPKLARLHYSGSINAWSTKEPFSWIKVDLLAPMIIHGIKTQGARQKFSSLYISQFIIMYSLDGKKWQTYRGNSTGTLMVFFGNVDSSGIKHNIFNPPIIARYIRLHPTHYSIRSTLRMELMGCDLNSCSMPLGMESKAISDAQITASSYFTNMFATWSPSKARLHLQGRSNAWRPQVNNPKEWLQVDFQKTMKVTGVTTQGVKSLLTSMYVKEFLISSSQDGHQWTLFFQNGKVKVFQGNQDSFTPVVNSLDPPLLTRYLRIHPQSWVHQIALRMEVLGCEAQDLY
# Description: Normal human plasma was incubated with an identical volume of mannan ([…]) for 2 hours at 37° C. The residual FVIII activity was measured in a one-stage clotting test using human placental […] as an activator (Dade Behring Marburg GmbH, Marburg, Germany) and FVIII-depleted plasma (Dade Behring Marburg GmbH, Marburg, Germany) as a substrate and a fibrin timer (Sysmex CA500, Dade Behring). The dilutions were performed in Owren-Koller buffer (Diagnostica Stago, Asnieres, France).
# [5] = test system: DCs according to Example 1; assay: Internalization of demannosylated FVIII-BDD-FITC by DCs (FACS); type: cell-based, human
# Description: Finally, the inhibition of the internalization of demannosylated FVIII-BDD labelled with FITC was measured. FVIII-BDD conjugated to FITC and treated with EndoF1 (0.143 μM) or untreated is incubated with DCs according to Example 1 (4×10^5 cells/well of 100 μl) in X-VIVO medium without serum at 37° C. or at 4° C. Beforehand, the cells were preincubated, where appropriate, with mannan (1 mg/ml) for 30 min at 37° C. After incubation for 2 hours, the cells are washed and the mean intensities (mfi) are measured by FACS. The internalization of FVIII-BDD is expressed with respect to the calculated mfi in the presence of untreated FVIII alone (cf. FIG. 8).
# T1 sequence (Q61830 with tags, fused parts or gaps limits assumed): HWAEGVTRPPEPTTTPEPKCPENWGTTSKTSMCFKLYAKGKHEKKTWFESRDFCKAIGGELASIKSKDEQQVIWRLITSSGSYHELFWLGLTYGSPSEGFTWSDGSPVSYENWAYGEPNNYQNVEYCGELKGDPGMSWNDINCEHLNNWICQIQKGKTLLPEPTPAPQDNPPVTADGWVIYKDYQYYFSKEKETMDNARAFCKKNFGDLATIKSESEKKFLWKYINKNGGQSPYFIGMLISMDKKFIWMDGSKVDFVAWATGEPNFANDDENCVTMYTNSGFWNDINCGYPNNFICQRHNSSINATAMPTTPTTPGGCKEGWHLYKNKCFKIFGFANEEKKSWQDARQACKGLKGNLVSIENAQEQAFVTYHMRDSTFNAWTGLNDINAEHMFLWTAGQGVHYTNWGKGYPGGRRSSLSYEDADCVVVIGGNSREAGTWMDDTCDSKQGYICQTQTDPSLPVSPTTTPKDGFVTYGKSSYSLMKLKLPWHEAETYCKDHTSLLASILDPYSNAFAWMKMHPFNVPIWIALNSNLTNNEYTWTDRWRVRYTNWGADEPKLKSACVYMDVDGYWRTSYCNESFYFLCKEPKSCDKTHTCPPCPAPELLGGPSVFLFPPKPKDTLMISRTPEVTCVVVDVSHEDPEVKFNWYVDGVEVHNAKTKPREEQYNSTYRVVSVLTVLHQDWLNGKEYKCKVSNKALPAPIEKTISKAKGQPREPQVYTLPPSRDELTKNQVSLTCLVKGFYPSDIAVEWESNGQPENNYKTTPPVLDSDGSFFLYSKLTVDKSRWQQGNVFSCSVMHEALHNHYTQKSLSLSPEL
substance,measurement,setting,value
mannan,binding to CTLD(4-7)-Fc,[1],specific binding
same,proliferation of T cells,[2],levels comparable to those of negative controls
same,inhibition of FVIII-induced activation of D9E9 cells,"[3]; DCs preincubated with mannan (1 mg/ml), FIG. 4b (B)",up to 84%
same,"activation of D9E9 cells by autologous B cells pulsed with FVIII, LE2E9","[3]; in presence of mannan, FIG. 4b (C)",does not prevent activation
same,effect on proclotting activity of FVIII,[4],does not block
same,further reduction of internalization of EndoF1-treated FVIII,"[5]; in the presence of mannan, results not shown",32%
same,inhibition of the internalization of FVIII-BDD,"[5]; with mannan (1 mg/ml), without deglycosylation, FIG. 8",45±7%
